Some test systems named below: SK-MEL-5; HCC 2998; HOP-62; HOP-92; SK-OV-3; SNB-75; NCI-H460; DU-145; KM12; COLO 205; OVCAR-8; UO-31; RPMI-8226; MDA-MB-435; A549; UACC-257; U-251; EKVX; MDA-MB-231; OVCAR-3.
Common to all, as to experiment: growth of human tumour cells (NCI), 48 h

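Protocol summary: plate cells (96-well), add compound at 5 concentrations, incubate 48 h, interpolate endpoints linearly. GI50 marks 50% less growth.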 Calls of active or inactive are those of the source. Rule as the data show it: active = GI50 up to about 1.1 µM and inactive = higher. Some results are limits rather than exact numbers.

On to `[O-][n+]1c(CN2CCCCC2)nc2cccc3c2c1-c1ccccc1-3`, for which the GI50 in the assay on SK-MEL-5 was 16.1 µM (inactive); in the assay with HCC 2998, 15 µM (inactive); with HOP-62, 19.6 µM (inactive); with HOP-92 it was 25.1 µM (inactive); in the assay with SK-OV-3, 26.1 µM (inactive); with SNB-75 it was 24.6 µM (inactive). In addition, the GI50 with NCI-H460 is 18 µM (inactive); in the assay on DU-145 it was 17.9 µM (inactive); with KM12, 26.4 µM (inactive); in the assay with COLO 205, 16.9 µM (inactive); in the assay with OVCAR-8 it was 22.8 µM (inactive); in the assay with UO-31, 11.9 µM (inactive). Further, the GI50 in the assay with RPMI-8226 is 23.7 µM (inactive); in the assay with MDA-MB-435, 32.1 µM (inactive); with A549 it was 15.7 µM (inactive); in the assay on UACC-257, 18.4 µM (inactive); with U-251, 29.4 µM (inactive); in the assay with EKVX, 18.4 µM (inactive). The GI50 in the assay with MDA-MB-231 is 23 µM (inactive); in the assay with OVCAR-3, 21.6 µM (inactive).

In the case of `COc1ccc2c(C)cc(C)nc2n1`, the GI50 in the assay with SK-MEL-5, with HCC 2998, in the assay on HOP-62, in the assay on HOP-92, in the assay on SK-OV-3 and with SNB-75 was > 100 µM (inactive) each time. Besides, the GI50 in the assay with NCI-H460, in the assay on DU-145, with KM12, in the assay on COLO 205, in the assay with OVCAR-8 and in the assay with UO-31 was > 100 µM (inactive) throughout. The GI50 in the assay on RPMI-8226, in the assay on MDA-MB-435, in the assay on A549, in the assay with UACC-257, in the assay on U-251 and in the assay on EKVX was > 100 µM (inactive) throughout. In addition, the GI50 in the assay on MDA-MB-231 and with OVCAR-3 was > 100 µM (inactive) throughout.

As to `O=C1OCC2OC(=O)c3cc(O)c(O)c(O)c3-c3c(O)c(O)c(O)c4c3C(=O)OC(C2OC(=O)c2cc(O)c(O)c(O)c2-c2c1cc(O)c(O)c2O)C1OC(=O)c2c-4c(O)c(O)c(O)c2[C@@H]1C(O)C(O)C(O)C(O)CO` (stereo not given in full), the GI50 in the assay with SK-MEL-5 was 14.1 µM (inactive); in the assay on HCC 2998 it was 21.6 µM (inactive); in the assay with HOP-62, 17.9 µM (inactive); in the assay on HOP-92, 18.2 µM (inactive); in the assay on SK-OV-3, 27.4 µM (inactive); in the assay on SNB-75, < 0.01 µM (active). For the same compound, the GI50 in the assay with NCI-H460 is 17.6 µM (inactive); with DU-145, 20.2 µM (inactive); with KM12 it was 22 µM (inactive); in the assay on COLO 205, 15.7 µM (inactive); with OVCAR-8, 23.3 µM (inactive); in the assay with UO-31, 17.8 µM (inactive). The GI50 is 29 µM (inactive) in the assay on RPMI-8226; 4.42 µM (inactive) in the assay on MDA-MB-435; 16.4 µM (inactive) in the assay with A549; 19.4 µM (inactive) in the assay with UACC-257; 20.4 µM (inactive) with U-251; 19.8 µM (inactive) in the assay on EKVX. Moreover, the GI50 in the assay with MDA-MB-231 was 12.7 µM (inactive); in the assay with OVCAR-3, 28.2 µM (inactive).

Take `Cc1c(C)c(S(=O)(=O)N(CCCCN)OCCCN)c(C)c2c1OC(C)(C)CC2`: the GI50 with SK-MEL-5 is 33 µM (inactive); in the assay with HCC 2998, 6.08 µM (inactive); in the assay on HOP-62, 13.4 µM (inactive); in the assay with HOP-92 it was 17.8 µM (inactive); in the assay on SK-OV-3 it was 15.6 µM (inactive); in the assay on SNB-75, 13.8 µM (inactive). Further, the GI50 in the assay with NCI-H460 is 12.9 µM (inactive); in the assay on DU-145, 23.7 µM (inactive); with KM12, 17.1 µM (inactive); in the assay on COLO 205, 31.2 µM (inactive); in the assay with OVCAR-8 it was 18.7 µM (inactive); with UO-31, 19.4 µM (inactive). For the same compound, the GI50 with RPMI-8226 is 23.3 µM (inactive); in the assay on MDA-MB-435, 16.5 µM (inactive); in the assay on A549, 19.2 µM (inactive); in the assay on UACC-257 it was 22.2 µM (inactive); in the assay with U-251, 21.9 µM (inactive); in the assay with EKVX, 16 µM (inactive). The GI50 in the assay on MDA-MB-231 is 21.7 µM (inactive); with OVCAR-3, 13.3 µM (inactive).

Take `CCN(CC)c1ccc2c(c1)OC(=O)C(c1nnc(-c3ccc([N+](=O)[O-])cc3)o1)C2` (stereo not given): the GI50 with SK-MEL-5, in the assay on HCC 2998, with HOP-62, in the assay on HOP-92, with SK-OV-3 and in the assay on SNB-75 was > 100 µM (inactive) throughout. The GI50 in the assay with NCI-H460, in the assay with DU-145, in the assay on KM12, in the assay with COLO 205, in the assay on OVCAR-8 and with UO-31 was > 100 µM (inactive) each time. The GI50 in the assay on RPMI-8226 is > 100 µM (inactive); with MDA-MB-435, > 100 µM (inactive); with A549, > 100 µM (inactive); with UACC-257, > 100 µM (inactive); with U-251 it was > 100 µM (inactive); in the assay with EKVX it was 10.2 µM (inactive). The GI50 in the assay with MDA-MB-231 and in the assay with OVCAR-3 was > 100 µM (inactive) in each case.

With `C=CC[C@@]1([C@H](C=C)COCc2ccc(OC)cc2)CC[C@]2(C)OC(C)(C)[C@@H](c3ccccc3)N2C1=S`, the GI50 in the assay with SK-MEL-5 was 25.2 µM (inactive); in the assay on HCC 2998, 44.8 µM (inactive); in the assay on HOP-62, 71.8 µM (inactive); with HOP-92 it was 30 µM (inactive); with SK-OV-3, 86.5 µM (inactive); in the assay on SNB-75, 60.1 µM (inactive). Further, the GI50 with NCI-H460 was 44.4 µM (inactive); in the assay with DU-145, 54.5 µM (inactive); in the assay on KM12, 36.9 µM (inactive); in the assay with COLO 205 it was 19.1 µM (inactive); with OVCAR-8, 48.5 µM (inactive); in the assay on UO-31 it was > 100 µM (inactive). Further, the GI50 was 33.5 µM (inactive) in the assay with RPMI-8226; > 100 µM (inactive) in the assay on MDA-MB-435; 60.8 µM (inactive) in the assay on A549; 34.8 µM (inactive) in the assay on UACC-257; 34.2 µM (inactive) with U-251; 26.2 µM (inactive) in the assay with EKVX. The GI50 is 46.2 µM (inactive) in the assay with MDA-MB-231 and 59.4 µM (inactive) with OVCAR-3.

`CC1CCCN(CP(=O)(c2ccccc2)c2ccccc2)C1` (stereo not given): the GI50 is > 100 µM (inactive) with SK-MEL-5; 52.5 µM (inactive) in the assay with HCC 2998; > 100 µM (inactive) with HOP-62; > 100 µM (inactive) in the assay on HOP-92; > 100 µM (inactive) with SK-OV-3; > 100 µM (inactive) in the assay on SNB-75. For the same compound, the GI50 with NCI-H460 was 92.5 µM (inactive); in the assay on DU-145, > 100 µM (inactive); in the assay with KM12, > 100 µM (inactive); with COLO 205, > 100 µM (inactive); in the assay with OVCAR-8 it was > 100 µM (inactive); in the assay on UO-31, > 100 µM (inactive). For the same compound, the GI50 with RPMI-8226 was 43.5 µM (inactive); with MDA-MB-435 it was > 100 µM (inactive); with A549, > 100 µM (inactive); in the assay with UACC-257 it was > 100 µM (inactive); in the assay on U-251 it was > 100 µM (inactive); in the assay on EKVX, > 100 µM (inactive). The GI50 in the assay with MDA-MB-231 is > 100 µM (inactive); in the assay with OVCAR-3, 78.2 µM (inactive).
